Assays:
[1] = system: cervical cancer cell line (HeLa); details: cited from earlier work
[2] = system: lung (A549) cancer cell lines; assay: Cytotoxicity test (MTT), A549; type: cell-based, human; details: A549, 48 hours
Excerpt: (§1) Cytotoxic effects of test substances are testes by means of using human breast (BT-20), melanoma (SK-Mel 128), prostate (DU-145), liver (SNU-398) and lung (A549) cancer cell lines. Toxic effects of test substances on the healthy normal cells are studied on human fibroblast cells (HFC).
(§2) Cell suspension prepared from alpha-MEM having 10% FBS (Fetal Bovine Serum), fungizone and penicillin/streptomycin is distributed as 5×10^3 of cell in each well in the cell culture containers comprising 96 wells for the test. […] Cells are kept in a humid environment at 5% of CO2 at 37°C for 48 hours in the presence of the test substance, of which final densities are of 200-0.09 µg/mL. 10 µL from the MTT solution (3-[4,5-dimethyltioazol-2,5-diphenyltetrazolium bromide) prepared at a density of 5 mg/mL is added to each well so as to determine the cell generation rate at the end of incubation period. After culture containers are kept in the humid environment at 5% of CO2 at 37°C for 2 hours, the content is emptied and dimethyl sulphoxide (DMSO) is added in the value of 100 µL/well on cells so as to solubilize intracellular formazan crystals. After incubation for 30 minutes, the color intensity is measured in the wave length of 570/620 by means of ELISA Microplate Reader (Tecan, Sunrise).

[3] = system: melanoma (SK-Mel 128) cancer cell lines; assay: Cytotoxicity test (MTT), SK-Mel 128; type: cell-based, human; details: SK-MEL 128, 48 hours
Excerpt: as §1, §2

pBR322 plasmid DNA [4] = assay: Oxidative nuclease activity; type: biochemical; details: with oxidative agent (H2O2, AA, ME) under irradiation
Experimental: Auxiliary reagents are added to H2O2, AA, ME medium so as to examine oxidative cleavage activities of the compounds.
In this study, pBR322 plasmid DNA is formed of buffer solution (50 mM Tris-HCl (pH 7)), auxiliary reagents and increasing concentrations of compounds, such that well contents are of 10 µL. The oxidative nuclease activity studies were performed under light irradiation. At the end of this period, after mixtures are incubated in darkness at 37 °C for an hour, reaction is stopped by means of above-mentioned methods and cleavage products are observed on the agarose gel under UV light.
Subsequent to the determination of hydrolytic nuclease activities of the compounds 7a and 3a, cleavage reactions are carried out by way of adding hydrogen peroxide (H2O2) (0.4 M), ascorbic acid (AA) (2.5 mM) and mercaptoethanol (ME) (0.4 M) so as to examine its oxidative cleavage capabilities with/without irradiation and the related results are given in Figure 4.

[5] = system: breast (BT-20) cancer cell lines; assay: Cytotoxicity test (MTT), BT-20; type: cell-based, human; details: BT20, 48 hours
Excerpt: as §1, §2

CT-DNA [6] = assay: Competitive EB binding experiment; details: EB (50 µM), CT-DNA (50 µM), pH 7.2
Experimental: It is observed in competitive EB binding studies of compounds how the wave length and absorbance, in which EB (50 µM) whose concentration is kept stable presents the maximum absorbance, vary with addition of CT-DNA (50 µM) and then with simultaneous addition of DNA and complex. This study is carried out in the buffer of 5 mM Tris-HCl/50 mM NaCl (pH 7.2).

[7] = system: liver (SNU-398) cancer cell lines; assay: Cytotoxicity test (MTT), SNU-398; type: cell-based, human; details: SNU-398, 48 hours
Excerpt: as §1, §2

[8] = system: supercoiled pBR322 plasmid DNA; assay: Hydrolytic nuclease activity (agarose gel electrophoresis); type: biochemical; details: 7a 6.25-50 µM; 3a 12.5-100 µM; without light
Excerpt: (§3) Cleavage activities of supercoiled pBR322 plasmid DNA of the compounds are observed by means of using agarose-gel electrophoresis. When the supercoiled is exposed to pBR322 plasmid DNA electrophoresis, it is observed that the supercoiled form (Form I) migrates in the swiftest manner. In case of a cut occurred on a single chain, the supercoiled form creates a nicked form (Form II) moving in the slowest manner. In case both chains are cut, the linear form (Form III) migrating between Form I and Form II.
Total volume of reaction mixture contained 50 mM Tris-HCl (pH 7.0), supercoiled pBR322 plasmid DNA (250 ng), and different concentrations of compound. While the well content is loaded to 0.8 percent of agarose gel (comprising 0.25 µg/mL EB), gel loading dye also added and loaded to the gel. After addition of running buffer, it is exposed to electrophoresis by applying a current of 100 volt for 90 minutes.

CT-DNA [9] = assay: UV-Vis absorption titration; type: binding; details: in the presence of CT-DNA; 5 mM Tris-HCl/50 mM NaCl (pH 7.2)
Experimental: Stock solutions of compounds are obtained by means of being solved in water and stored in a room temperature in darkness. Stock solutions of CT-DNA are prepared in 5 mM Tris-HCl buffer of 7.2 pH with 50 mM NaCl and stored at 4 °C for three days. At the end of this period, absorbance rates of 260 and 280 nm are calculated so as to determine rate of DNA impurity. […] Concentration of DNA is measured and calculated at 260 nm by using molar excitation coefficient of (ε) 6600 M^-1cm^-1. All studies with the interaction between compounds and CT-DNA are carried out in 5 mM Tris-HCl/50 mM NaCl (pH 7.2) by keeping stock solutions prepared in water at the stable concentration and changing CT-DNA concentration. While carrying out this process, absorbance of CT-DNA is eliminated by adding CT-DNA in an equal amount on the blind solution.
Variations in the absorbance intensity are presented in percent. %H = [(A1−A2)/(A1)] × 100 [formula]
A1: Maximum absorbance of the compound; A2: Absorbance of the compound subsequent to addition of DNA.

topoisomerase I enzyme = target: T1, topoisomerase I enzyme (Homo sapiens, UniProt P11387); assay: Topoisomerase I inhibition (relaxation method); type: biochemical; details: 1 U Topo I, pBR322 plasmid DNA; 7a 12.5-37.5 µM; 3a 12.5-25 µM
T1 sequence (P11387 1-765): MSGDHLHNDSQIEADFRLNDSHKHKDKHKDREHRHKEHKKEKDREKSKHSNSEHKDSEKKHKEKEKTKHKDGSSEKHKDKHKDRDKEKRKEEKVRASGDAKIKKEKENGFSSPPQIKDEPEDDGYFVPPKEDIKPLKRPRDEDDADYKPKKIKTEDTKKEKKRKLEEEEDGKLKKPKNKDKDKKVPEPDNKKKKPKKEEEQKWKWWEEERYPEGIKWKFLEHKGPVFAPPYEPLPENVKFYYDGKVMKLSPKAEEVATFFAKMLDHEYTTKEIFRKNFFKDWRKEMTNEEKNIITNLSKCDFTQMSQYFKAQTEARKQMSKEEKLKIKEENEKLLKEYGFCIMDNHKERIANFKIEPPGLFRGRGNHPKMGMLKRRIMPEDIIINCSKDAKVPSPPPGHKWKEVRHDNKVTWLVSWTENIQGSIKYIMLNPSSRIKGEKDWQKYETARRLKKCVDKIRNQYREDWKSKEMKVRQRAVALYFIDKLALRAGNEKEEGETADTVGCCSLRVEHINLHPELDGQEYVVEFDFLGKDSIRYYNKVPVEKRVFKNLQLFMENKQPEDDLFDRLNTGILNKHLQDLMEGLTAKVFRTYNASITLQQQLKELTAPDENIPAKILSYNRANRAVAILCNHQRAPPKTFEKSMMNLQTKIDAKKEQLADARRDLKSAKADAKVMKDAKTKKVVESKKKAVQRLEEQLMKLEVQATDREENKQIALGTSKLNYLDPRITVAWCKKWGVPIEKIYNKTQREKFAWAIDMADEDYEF
Experimental: After incubation process, samples are loaded to 0.8 % of agarose gel, exposed to electrophoresis in the running buffer by applying 40 volt of current for 3 hours and forms obtained are observed on the agarose gel under UV light.

[10] = system: supercoiled pBR322 plasmid DNA; assay: Nuclease activity under irradiation (photonuclease); type: biochemical; details: for nuclease activity under irradiation: light for 15 minutes, 700 nm filter, increasing concentrations
Excerpt: as §3
It is used General Electric quartz lamb of 300 watts and optical filter of 700 nm for compounds illustrated as Formula I and II to light in the proper wave length so as to observe that the supercoiled pBR322 plasmid DNA is cleavage by the compounds and so as to evaluate usability potentials of the compounds in the photo-dynamic therapy. In this study, total volume of reaction mixture contained 50 mM Tris-HCl (pH 7.0), super-coiled pBR322 plasmid DNA (250 ng), and increasing concentrations of compounds. Afterwards, well contents are exposed to light for 15 minutes. At the end of this period, after mixtures are incubated in darkness at 37 °C for an hour, reactions are stopped by means of above-mentioned methods and cut products are observed on the agarose gel under UV light.

topoisomerase II enzyme = assay: Topoisomerase II inhibition (relaxation method); type: biochemical; details: 1 U Topo II, pBR322 plasmid DNA; 7a 12.5-37.5 µM; doxorubicin as standard
Experimental: After incubation process, samples are loaded to 0.8 % of agarose gel, exposed to electrophoresis in the running buffer by applying 40 volts of current for 3 hours and forms obtained are observed on the agarose gel under UV light.

[11] = system: prostate (DU-145) cancer cell lines; assay: Cytotoxicity test (MTT), DU-145; type: cell-based, human; details: DU-145, 48 hours
Excerpt: as §1, §2

pBR322 plasmid DNA [12] = assay: Determination of reactive oxygen types in photonuclease activity; type: biochemical; details: 3a (50 µM), stimulation with light
Experimental: Inhibition tests are performed in the presence of standard radical scavengers so as to determine active oxygen types effective on its cleavage in the presence of light on pBR322 plasmid DNA of complexes. For that purpose, it used ethanol (EtOH), methanol (MeOH) and dimethyl sulphoxide (DMSO) as hydroxyl radical scavenger; sodium azide and L-histidine as singlet oxygen scavenger; SOD as superoxide radical scavenger, EDTA as chelating agent and catalase as hydrogen peroxide adsorbent. It is also observed whether or not results obtained by using different types scavenging the same type of radicals support each other. Different reaction mixtures are formed by means of adding pBR322 plasmid DNA and complex in the efficient concentration and any one of above mentioned standard radical scavengers in variable concentrations into 50 mM Tris-HCl buffer. Subsequent to incubation of different reaction mixture formed at 37°C for an hour, it comprises the process of examining and monitoring these products. […]

CT-DNA [13] = assay: Determination of DNA melting temperature; type: binding; details: absorbance at 260 nm; CT-DNA alone 75.57 °C
Experimental: Studies pertaining to determination of DNA melting temperature is carried out by means of Cary 100 Bio UV-Visible Spectrophotometer with Varian Cary Temperature Controller unit.
(§4) The absorbance is measured at 260 nm at every 0.5 °C in the range of 60-90 °C by increasing temperature of the cell comprising the basin by 1 °C every minute by means of employing thermal melting program. Values Tm are automatically calculated by the device from t(°C)-Absorbance curve of CT-DNA drawn in the presence and absence of the compound depending on its absorbance in 260 nm.
as §4, with “program of DNA melting temperature of the compound 3a.” for “program.”, “3a” for “the compound”, “nm. While the melting temperature of CT-DNA is at 75.57 °C, the melting temperature of the compounds CT-DNA + 3a is at 81.82 °C. An increase at the melting temperatures strengthens the potential that the compounds becomes an intercalative agents.” for “nm.”

Row | Compound | cell survival (photocytotoxicity) [1] [%] | CC50 [2] [nM] | CC50 [3] [nM] | oxidative cleavage activity (pBR322 plasmid DNA [4]) | CC50 [5] [nM] | competitive EB binding (CT-DNA [6]) | CC50 [7] [nM] | hydrolytic nuclease activity [8] | hypochromism (CT-DNA [9]) [%] | red-shift (CT-DNA [9]) [nm] | topoisomerase I inhibition effect (topoisomerase I enzyme) | nuclease activity under irradiation [10] | topoisomerase II inhibition effect (topoisomerase II enzyme) | CC50 [11] [µM] | nuclease activity under irradiation at 100 µM ([10]; in the presence of light, concentration of 100 µM) | effect of singlet oxygen scavengers NaN3 and L-Histidine on cleavage (pBR322 plasmid DNA [12]) | melting temperature of CT-DNA + compound (CT-DNA [13]) [°C]
1 | c1ccc(C(O[Si]2(OC(c3ccccc3)(c3ccccc3)c3ccncc3)n3c4c5ccccc5c3N=C3N=C(N=c5c6ccccc6c(n52)=NC2=NC(=N4)c4ccccc42)c2ccccc23)(c2ccccc2)c2ccncc2)cc1 [compound 3, axially di-(alpha,alpha-diphenyl-4-pyridylmethoxy) silicon(IV) phthalocyanine] | 17 |  |  |  |  |  |  |  |  |  |  |  |  |  |  |  | 
2 | bis(3,5-bis{3-[3-(diethylmethylamino)phenoxy]propoxy}phenyl)methoxy)phthalocyaninato silicon (IV) Iodide [7a] |  | 1180 | 1130 | significantly high cleavage activity | 1440 | compete with EB so as to bind with CT-DNA | 490 | observed for the compound 7a depending on the concentration | 43.64 | 6 | supercoiled form rate increases | exhibits the nuclease activity depending on the concentration | Effective results are observed compared to doxorubicin | 2.99 |  |  | 
3 | bis(3,5-bis{3-[3-trimethylamino)phenoxy]propoxy}phenyl)methoxy)phthalocyaninato silicon (IV) Iodide [3a] |  | 2240 | 1470 |  | 3960 | compete with EB so as to bind with CT-DNA | 860 | observed for the compound 3a depending on the concentration | 25.40 | 6 | supercoiled form rate increases | exhibits the nuclease activity depending on the concentration |  | 4.63 | destroys pBR322 plasmid DNA completely | prevent the cleavage | 81.82

Reference: patent publication EP3856749B1, “WATER-SOLUBLE, NON-AGGREGATED SILICON PHTALGCYANINE COMPOUND HAVING IN VITRO ANTICANCER EFFECT AGAINST CANCER TYPES OF LUNG, LIVER, BREST AND MELANOMA” (Karadeniz Teknik Universitesi, priority 2018, dated 2020)
